From US20100240683A1, “COMBINATION THERAPY, COMPOSITION AND METHODS FOR THE TREATMENT OF CARDIOVASCULAR DISORDERS” (Syndromex Ltd., priority 2007, published 2010)
Read-outs that look alike come from different tables or passages of the source.

What was measured:
CYP3A4 [1] = target: T1, CYP3A4 (Homo sapiens, UniProt P08684); assay: Fluorimetric CYP inhibition assay, CYP3A4 (substrates BFC, BQ, DBF)
CYP3A4 [2] = target: T1, CYP3A4
CYP2C19 [3] = target: T2, CYP2C19 (Homo sapiens, UniProt P33261); assay: Fluorimetric CYP inhibition assay, CYP2C19-CEC
CYP2C9 = CYP2C9 (Homo sapiens, UniProt P11712); assay: Fluorimetric CYP inhibition assay, CYP2C9-MFC
CYP2C19 [4] = target: T2, CYP2C19; assay: in vitro
CYP1A2 [5] = target: T3, CYP1A2 (Homo sapiens, UniProt P05177); assay: in vitro
T3 sequence (P05177 1-516): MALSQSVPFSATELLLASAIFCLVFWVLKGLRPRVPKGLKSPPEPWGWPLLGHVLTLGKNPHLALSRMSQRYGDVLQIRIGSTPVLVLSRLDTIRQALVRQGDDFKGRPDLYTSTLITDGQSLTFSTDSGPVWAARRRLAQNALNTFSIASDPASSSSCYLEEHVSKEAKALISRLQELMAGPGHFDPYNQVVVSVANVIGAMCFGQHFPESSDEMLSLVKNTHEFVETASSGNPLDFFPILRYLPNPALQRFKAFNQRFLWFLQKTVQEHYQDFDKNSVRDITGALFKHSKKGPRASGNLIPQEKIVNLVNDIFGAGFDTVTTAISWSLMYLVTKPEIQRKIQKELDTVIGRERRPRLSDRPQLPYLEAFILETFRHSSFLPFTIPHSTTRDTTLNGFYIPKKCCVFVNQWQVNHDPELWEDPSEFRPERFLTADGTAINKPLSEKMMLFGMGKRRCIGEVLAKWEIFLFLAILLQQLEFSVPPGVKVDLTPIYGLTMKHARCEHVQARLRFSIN

CYP2C8 = target: T4, CYP2C8 (Homo sapiens, UniProt P10632); assay: in vitro
T4 sequence (P10632 1-490): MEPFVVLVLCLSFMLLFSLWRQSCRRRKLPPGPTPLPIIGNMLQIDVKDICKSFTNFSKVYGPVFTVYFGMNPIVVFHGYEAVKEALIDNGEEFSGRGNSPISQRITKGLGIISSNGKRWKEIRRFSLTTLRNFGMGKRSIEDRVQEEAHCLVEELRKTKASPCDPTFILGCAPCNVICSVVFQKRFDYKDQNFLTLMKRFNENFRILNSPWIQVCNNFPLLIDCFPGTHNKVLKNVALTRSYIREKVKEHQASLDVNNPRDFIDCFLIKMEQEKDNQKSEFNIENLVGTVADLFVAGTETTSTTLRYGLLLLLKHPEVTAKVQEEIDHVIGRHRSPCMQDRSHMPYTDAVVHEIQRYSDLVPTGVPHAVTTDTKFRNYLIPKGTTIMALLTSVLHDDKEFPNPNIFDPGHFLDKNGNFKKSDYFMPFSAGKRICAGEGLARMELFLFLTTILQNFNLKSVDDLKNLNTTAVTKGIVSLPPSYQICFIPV

CYP1A2 [6] = target: T3, CYP1A2; assay: Fluorimetric CYP inhibition assay, CYP1A2-CEC
CYP2D6 [7] = target: T5, CYP2D6 (Homo sapiens, UniProt P10635); assay: Fluorimetric CYP inhibition assay, CYP2D6-AMMC
CYP2D6 [8] = target: T5, CYP2D6; assay: in vitro
[9] = test system: dyslipidemic non-diabetic patients; assay: Hypolipidemic effect of M16ββ in dyslipidemic non-diabetic patients; type: in vivo, human; conditions: p.o. 200 mg/day to 800 mg/day
Description: Eight dyslipidemic non-diabetic patients were subjected to 4-5 weeks maintenance period on placebo followed by a period of 3-5 months of treatment p.o. with increasing M16ββ doses ranging from 200 mg/day to 800 mg/day.

T1 sequence (P08684 whole entry): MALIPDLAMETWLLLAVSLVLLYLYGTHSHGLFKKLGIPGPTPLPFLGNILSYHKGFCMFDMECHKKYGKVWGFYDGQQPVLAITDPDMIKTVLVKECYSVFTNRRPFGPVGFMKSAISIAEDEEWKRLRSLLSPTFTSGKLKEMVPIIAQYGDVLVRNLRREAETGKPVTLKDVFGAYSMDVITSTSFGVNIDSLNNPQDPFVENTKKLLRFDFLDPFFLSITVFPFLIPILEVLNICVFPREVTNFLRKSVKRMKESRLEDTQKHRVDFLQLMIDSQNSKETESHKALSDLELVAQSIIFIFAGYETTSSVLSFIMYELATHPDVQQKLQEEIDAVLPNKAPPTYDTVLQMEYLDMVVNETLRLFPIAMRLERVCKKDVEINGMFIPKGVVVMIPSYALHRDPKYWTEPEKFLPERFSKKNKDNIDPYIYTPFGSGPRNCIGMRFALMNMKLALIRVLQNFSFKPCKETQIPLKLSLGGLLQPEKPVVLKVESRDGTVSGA
T2 sequence (P33261 whole entry): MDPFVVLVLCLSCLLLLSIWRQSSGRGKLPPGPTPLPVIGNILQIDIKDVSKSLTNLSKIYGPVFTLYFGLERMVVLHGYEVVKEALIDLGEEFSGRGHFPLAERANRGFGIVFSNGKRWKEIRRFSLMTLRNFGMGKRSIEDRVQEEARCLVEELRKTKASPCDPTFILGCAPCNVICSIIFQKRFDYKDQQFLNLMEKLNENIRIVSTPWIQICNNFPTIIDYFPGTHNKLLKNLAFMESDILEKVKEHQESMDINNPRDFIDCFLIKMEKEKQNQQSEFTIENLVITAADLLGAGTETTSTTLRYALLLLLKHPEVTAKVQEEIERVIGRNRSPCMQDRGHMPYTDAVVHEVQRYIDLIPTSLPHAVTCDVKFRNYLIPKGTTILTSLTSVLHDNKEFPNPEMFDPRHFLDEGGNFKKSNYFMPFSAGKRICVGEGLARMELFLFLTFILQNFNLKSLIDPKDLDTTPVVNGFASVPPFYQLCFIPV
T5 sequence (P10635 whole entry): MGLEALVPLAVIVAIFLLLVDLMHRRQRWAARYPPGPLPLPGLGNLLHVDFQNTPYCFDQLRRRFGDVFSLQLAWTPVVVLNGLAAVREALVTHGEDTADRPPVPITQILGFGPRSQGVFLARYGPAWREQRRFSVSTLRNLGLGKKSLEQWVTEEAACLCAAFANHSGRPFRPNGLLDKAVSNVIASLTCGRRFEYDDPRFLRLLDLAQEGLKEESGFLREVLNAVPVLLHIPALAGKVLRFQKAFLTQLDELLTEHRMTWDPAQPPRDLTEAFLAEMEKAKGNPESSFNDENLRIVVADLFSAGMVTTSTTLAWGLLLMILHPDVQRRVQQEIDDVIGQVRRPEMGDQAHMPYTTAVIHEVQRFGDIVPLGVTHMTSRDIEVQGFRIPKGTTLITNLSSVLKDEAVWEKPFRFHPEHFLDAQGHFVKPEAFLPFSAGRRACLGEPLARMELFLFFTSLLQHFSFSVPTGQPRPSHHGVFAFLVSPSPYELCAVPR
Chain of CYP2C9 (P11712 whole entry): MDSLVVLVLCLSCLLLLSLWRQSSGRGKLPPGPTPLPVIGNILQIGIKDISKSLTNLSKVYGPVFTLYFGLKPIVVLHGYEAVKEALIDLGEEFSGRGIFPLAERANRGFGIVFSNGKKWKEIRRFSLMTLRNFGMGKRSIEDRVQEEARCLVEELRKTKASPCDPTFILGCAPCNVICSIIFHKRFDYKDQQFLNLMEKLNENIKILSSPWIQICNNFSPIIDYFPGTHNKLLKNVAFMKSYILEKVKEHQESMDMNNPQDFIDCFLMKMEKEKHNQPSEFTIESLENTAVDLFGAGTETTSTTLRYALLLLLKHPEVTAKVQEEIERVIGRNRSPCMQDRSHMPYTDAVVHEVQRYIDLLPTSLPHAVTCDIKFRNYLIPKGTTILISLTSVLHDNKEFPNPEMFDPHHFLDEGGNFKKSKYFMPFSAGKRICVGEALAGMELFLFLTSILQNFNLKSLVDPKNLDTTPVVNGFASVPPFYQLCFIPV

## CC(C)(CCCCCCCCCCCCC(C)(C)C(=O)O)C(=O)O [M16αα, 2,2,15,15-tetramethylhexadecane-1,16-dioic acid]
CYP3A4 [1]
  IC50: > 100 µM
CYP3A4 [2]; 0.05 μM
  % Inhibition (set 1): 5%
  % Inhibition (set 2): 1%
CYP3A4 [2]; 3.7 μM
  % Inhibition (set 1): 1%
CYP3A4 [2]; 33.33 μM
  % Inhibition (set 1): 4%
CYP2C19 [3]
  IC50: 46 µM
CYP2C9
  IC50: > 100 µM
CYP2C19 [4]; % Inhibition (set 1)
  inhibition at 0.05 μM: 0%
  inhibition at 0.41 μM: 0%
  inhibition at 1.23 μM: 0%
  inhibition at 3.7 μM: 0%
  inhibition at 11.11 μM: 3%
  inhibition at 33.33 μM: 57%
  inhibition at 100 μM: 63%
CYP2C19 [4]; % Inhibition (set 2)
  inhibition at 0.05 μM: 1%
  inhibition at 0.41 μM: 2%
  inhibition at 1.23 μM: 4%
  inhibition at 3.7 μM: 4%
  inhibition at 11.11 μM: 12%
  inhibition at 33.33 μM: 43%
  inhibition at 100 μM: 70%
CYP1A2 [5]; % Inhibition (set 1)
  inhibition at 0.05 μM: 0%
  inhibition at 0.41 μM: 6%
  inhibition at 1.23 μM: 0%
  inhibition at 3.7 μM: 9%
  inhibition at 11.11 μM: 5%
  inhibition at 33.33 μM: 7%
  inhibition at 100 μM: 8%
CYP1A2 [5]; % Inhibition (set 2)
  inhibition at 0.05 μM: 0%
  inhibition at 0.41 μM: 3%
  inhibition at 1.23 μM: 1%
  inhibition at 3.7 μM: 5%
  inhibition at 11.11 μM: 6%
  inhibition at 33.33 μM: 4%
  inhibition at 100 μM: 9%
CYP2C8; % Inhibition (set 1)
  inhibition at 0.05 μM: 0%
  inhibition at 0.41 μM: 1%
  inhibition at 1.23 μM: 0%
  inhibition at 3.7 μM: 4%
  inhibition at 11.11 μM: 13%
  inhibition at 33.33 μM: 23%
  inhibition at 100 μM: 43%
CYP2C8; % Inhibition (set 2)
  inhibition at 0.05 μM: 0%
  inhibition at 0.41 μM: 0%
  inhibition at 1.23 μM: 0%
  inhibition at 3.7 μM: 0%
  inhibition at 11.11 μM: 0%
  inhibition at 33.33 μM: 15%
  inhibition at 100 μM: 38%
CYP1A2 [6]
  IC50: > 100 µM
CYP2D6 [7]
  IC50: > 100 µM
CYP2D6 [8]; % Inhibition (set 1)
  inhibition at 0.05 μM: 0%
  inhibition at 0.41 μM: 0%
  inhibition at 1.23 μM: 0%
  inhibition at 3.7 μM: 0%
  inhibition at 11.11 μM: 3%
  inhibition at 33.33 μM: 11%
  inhibition at 100 μM: 7%
CYP2D6 [8]; % Inhibition (set 2)
  inhibition at 0.05 μM: 0%
  inhibition at 0.41 μM: 0%
  inhibition at 1.23 μM: 0%
  inhibition at 3.7 μM: 0%
  inhibition at 11.11 μM: 2%
  inhibition at 33.33 μM: 15%
  inhibition at 100 μM: 0%

## CC(C)(CCCCCCCCCCC(C)(C)CC(=O)O)CC(=O)O [M16ββ, 3,3,14,14-tetramethylhexadecane-1,16-dioic acid]
CYP3A4 [1]
  IC50: > 100 µM
CYP3A4 [2]; 1.23 μM
  % Inhibition (set 2): 12%
CYP3A4 [2]; 3.7 μM
  % Inhibition (set 2): 2%
CYP2C19 [3]
  IC50: > 100 µM
CYP2C9
  IC50: > 100 µM
CYP2C19 [4]; % Inhibition (set 1)
  inhibition at 0.05 μM: 0%
  inhibition at 0.41 μM: 5%
  inhibition at 1.23 μM: 4%
  inhibition at 3.7 μM: 0%
  inhibition at 11.11 μM: 0%
  inhibition at 33.33 μM: 1%
  inhibition at 100 μM: 21%
CYP2C19 [4]; % Inhibition (set 2)
  inhibition at 0.05 μM: 0%
  inhibition at 0.41 μM: 1%
  inhibition at 1.23 μM: 0%
  inhibition at 3.7 μM: 0%
  inhibition at 11.11 μM: 0%
  inhibition at 33.33 μM: 1%
  inhibition at 100 μM: 7%
CYP1A2 [5]; % Inhibition (set 1)
  inhibition at 0.05 μM: 0%
  inhibition at 0.41 μM: 0%
  inhibition at 1.23 μM: 0%
  inhibition at 3.7 μM: 0%
  inhibition at 11.11 μM: 4%
  inhibition at 33.33 μM: 3%
  inhibition at 100 μM: 1%
CYP1A2 [5]; % Inhibition (set 2)
  inhibition at 0.05 μM: 0%
  inhibition at 0.41 μM: 0%
  inhibition at 1.23 μM: 0%
  inhibition at 3.7 μM: 0%
  inhibition at 11.11 μM: 0%
  inhibition at 33.33 μM: 1%
  inhibition at 100 μM: 4%
[9]
  time into treatment at which hypolipidemic effect was observed: less than 1 month
[9]; 3-5 months
  Plasma LDL-C: remained unaffected
  decrease in plasma triglycerides (mean): 55%
  increase in HDL-C: 13%
  plasma fibrinogen: decrease
  tolerability: well tolerated in all dosages
CYP2C8; % Inhibition (set 1)
  inhibition at 0.05 μM: 8%
  inhibition at 0.41 μM: 7%
  inhibition at 1.23 μM: 4%
  inhibition at 3.7 μM: 7%
  inhibition at 11.11 μM: 15%
  inhibition at 33.33 μM: 22%
  inhibition at 100 μM: 46%
CYP2C8; % Inhibition (set 2)
  inhibition at 0.05 μM: 0%
  inhibition at 0.41 μM: 0%
  inhibition at 1.23 μM: 0%
  inhibition at 3.7 μM: 0%
  inhibition at 11.11 μM: 9%
  inhibition at 33.33 μM: 23%
  inhibition at 100 μM: 46%
CYP1A2 [6]
  IC50: > 100 µM
CYP2D6 [7]
  IC50: > 100 µM
CYP2D6 [8]; % Inhibition (set 1)
  inhibition at 0.05 μM: 0%
  inhibition at 0.41 μM: 0%
  inhibition at 1.23 μM: 0%
  inhibition at 3.7 μM: 0%
  inhibition at 11.11 μM: 10%
  inhibition at 33.33 μM: 17%
  inhibition at 100 μM: 10%
CYP2D6 [8]; % Inhibition (set 2)
  inhibition at 0.05 μM: 0%
  inhibition at 0.41 μM: 0%
  inhibition at 1.23 μM: 0%
  inhibition at 3.7 μM: 1%
  inhibition at 11.11 μM: 6%
  inhibition at 33.33 μM: 14%
  inhibition at 100 μM: 19%
